Experimental data taken from a melting point compilation (Tetko et al.).

| Structure (SMILES) | melting point [°C] |
| --- | --- |
| FC(F)(F)c1nc(S)c2ccccc2n1 | 214 to 216 |
| O=C(O)c1ccc(Oc2cccc(Cl)c2)cc1 | 132 to 134 |
| Nc1cc(N2CCCS2(=O)=O)ccc1Cl | 139 to 141 |
| COc1cc(C=O)ccc1OCC(=O)c1ccc(Cl)c(Cl)c1 | 137 to 139 |
| N#CCC(=O)NC1CCCC1 | 92 to 94 |
| CCc1[nH]nc(N)c1-c1ccc2c(c1)OCO2 | 97 to 99 |
| CN1CCN(c2ccc(N)c(C(F)(F)F)c2)CC1 | 87 to 89 |
| CCOc1ccc(N)cc1CO | 77 to 79 |
| O=C(c1cccnc1)C1CCOCC1 | 43 to 45 |
| N#CC1(N)CCCCC1 | 25 to 27 |
| Clc1cc(-c2cccnc2)nc2ncnn12 | 175 to 177 |
| CC(=O)NCCc1ccc(C(=O)CCl)cc1F | 97 to 99 |
| CC1CN(c2ccccc2C=O)CC(C)O1 (stereo not drawn) | 94 to 96 |
| O=C(O)c1ccc(Br)c(S(=O)(=O)N2CCOCC2)c1 | 167 to 169 |
| CS(=O)(=O)c1ccc(C2CO2)cc1 (stereo not drawn) | 97 to 99 |
| N#Cc1nc(-c2ccco2)oc1N1CCNCC1 | 129 to 131 |
| Cc1ccc2c(c1)C(=O)C(=O)N2 | 180 to 184 |
| COC(=O)CN1Cc2ccccc2C1=O | 114 to 116 |
| NC(=O)NCCc1cccnc1 | 152 to 154 |
| CC(C)c1cc(Br)ccc1O | 48 to 50 |
| Nc1cccc(OCC(=O)N2CCCC2)c1 | 101 to 103 |
| COc1cccc(CNC(=O)n2ccnc2)c1 | 98 to 100 |
| O=C(O)C(F)(F)c1cccc(Cl)c1 | 75 to 77 |
| O=C(O)C1CCCCN1C(=O)C1CCCO1 (stereo not drawn) | 116 to 118 |
| Nc1ccc(NCCCC(=O)O)cc1 | 148 to 150 |

| Structure (SMILES) | melting point [°C] |
| --- | --- |
| Nc1cc(-n2cnnn2)ccc1Cl | 159 to 161 |
| O=C(O)c1cc2[nH]nnc2cc1F | 268 to 270 |
| O=C(O)CCC(=O)NCC(=O)c1ccc(F)cc1F | 173 to 175 |
| Cc1nc(S)n(C2CC2)c1C | 178 to 180 |
| COc1cc(CN)cc(OC)c1O | 149 to 151 |
| O=S(=O)(F)CCn1nnc(-c2ccccc2)n1 | 97 to 99 |
| O=C1C=CC(=O)N1c1ccc(F)cc1 | 160 to 162 |
| O=C(O)c1ccc(CN2CCC(CO)CC2)cc1 | 219 to 221 |
| COc1ccc(-c2ccncc2C=O)cc1 | 82 to 84 |
| Cc1nc2cc(C(F)(F)F)ccc2s1 | 63 to 65 |
| N#Cc1ccc(-n2cncn2)nc1 | 203 to 205 |
| O=C(O)CCNc1ccc(C(F)(F)F)cc1[N+](=O)[O-] | 130 to 134 |
| Cc1nc(S(=O)(=O)N2CCC(C(=O)O)CC2)cn1C | 262 to 264 |
| CCOC(=O)c1cc2c(F)cc(Br)cc2[nH]1 | 194 to 196 |
| N#CCN1CCCC2CCCCC21 (stereo not drawn) | 42 to 44 |
| Cc1ccnc(-n2cc(S(=O)(=O)Cl)cn2)c1 | 104 to 106 |
| CN(C)S(=O)(=O)c1ccc(N)c(N)c1 | 193 to 195 |
| O=C(O)c1oc2ccccc2c1CO | 153 to 155 |
| O=C(O)CC1Sc2ccccc2NC1=O (stereo not drawn) | 188 to 190 |
| CCOc1ccc(N(C)S(=O)(=O)c2ccc(C)c(C(=O)O)c2)cc1 | 175 to 177 |
| C/C(N)=C\C#N | 4 to 6 |
| CC(C)c1ccccc1Oc1ccccc1C(=O)O | 133 to 135 |
| Cc1ccc(-c2nnc(S)o2)cc1 | 266 to 268 |
| Cn1nnnc1-c1cccc(NC(=O)OCC(F)(F)F)c1 | 128 to 130 |
| O=C(CCN1CCOCC1)c1ccc2ccccc2c1 | 67 to 69 |

| Structure (SMILES) | melting point [°C] |
| --- | --- |
| Nc1nc(-c2ccsc2)ns1 | 172 to 174 |
| CN(C)C(=O)Nc1ccc(C(=O)O)c(Cl)c1 | 191 to 193 |
| COc1cccc(-c2nn(-c3ccccc3)cc2C(=O)O)c1 | 156 to 158 |
| COC(=O)c1ccc2nc(N)oc2c1 | 228 to 230 |
| O=C(O)CSc1ccc(F)c(F)c1 | 62 to 64 |
| NC(=Nc1ccccc1)N1CCCCC1 | 61 to 63 |
| NC(=O)c1cccc(CO)c1 | 113 to 115 |
| COC(=O)c1ccc(-n2c(C)cc(C(=O)CCl)c2C)cc1 | 157 to 159 |
| CC(Cl)C(=O)Nc1ccc(Cl)c(C(F)(F)F)c1 (stereo not drawn) | 130 to 135 |
| O=C1C(Br)CCN1C1CCOCC1 (stereo not drawn) | 67 to 69 |
| COC(=O)c1nscc1N | 54 to 56 |
| Nc1ccc2nc(N3CCOCC3)sc2c1 | 166 to 168 |
| Sc1nnc(NCc2ccccc2)s1 | 146 to 148 |
| CC(C)(CCC(=O)O)NC(=O)OC(C)(C)C | 91 to 93 |
| CC(=O)c1ccc(S(C)=O)cc1 (stereo not drawn) | 105 to 107 |
| O=C(O)CNc1ncccn1 | 169 to 171 |
| O=C1COc2cc(S)c(Cl)cc2N1 | 256 to 258 |
| O=[N+]([O-])c1ccc(N2CCOCC2)nc1 | 143 to 145 |
| Cc1noc(C2CC2)c1NC(=O)OC(C)(C)C | 108 to 110 |
| CS(=O)(=O)c1cccc(OCC(=O)O)c1 | 110 to 112 |
| CCOC(=O)c1c(N)sc2c1CCN(CC)C2 | 83 to 87 |
| Cc1nc(CN)oc1-c1ccc(Cl)cc1 | 69 to 71 |
| COC(=O)c1cc(Cl)c(O)c(Cl)c1 | 117 to 121 |
